The values below come from US5312831A, “Urethanes and ureas that induce cytokine production” (American Cyanamid Company, priority 1993, dated 1994).

Entries after “also recorded” stand apart in the source; their conditions may differ. Like-named read-outs stand apart in the source and are kept apart here.

The test system of one test is CSF. Nature of the test: Serum colony stimulating factor (CSF) assay in mice. In kind it is in vivo, mouse. As to conditions: serum 4 hours after injection. Here is the method:
(§1) Colony forming assays Granulocyte-Macrophage (CFU-GM)--Mice are treated with 150 mg/kg of 5-Fu and treatment with test compound begins 24 hrs. later. On consecutive days, mice are killed by cervical dislocation and the femurs removed under sterile conditions. Femurs are flushed with 1 ml of ice cold medium (Iscove's supplemented with 20% FCS, 1% penicillin-streptomycin, 1% glutamine and 5×10^-5 M 2-mercaptoethanol). Bone marrow cells (5×10^5) are then plated in 12×75 mm tissue culture plates in 3 ml of warm ararose (3%) in Iscove's medium with 100 Units/ml of recombinant mouse GM-CSF purchased from Genzyme (Boston, Mass.). Plates are incubated for 7 days at 37° C. in 5% CO2. After 7 days, colonies of 50 cells or greater are enumerated under a dissecting microscope.
Bone marrow cells are prepared as described above for the CFU-GM assay. The cells are then incubated in soft agar with an 0.3% final concentration of serum taken from mice 4 hours after injection with test compounds. After 7 days of incubation at 37° C., the number of colony forming (CFU) cells per 10^5 plated bone marrow cells is determined by counting colonies of more than 50 cells under a dissecting microscope. The data are reported as CFU/10^5 bone marrow cells.

Test [1] deals with IL-6. Nature of the test: Serum IL-6 in 5-FU treated monkeys. In kind it is in vivo, cynomolgous monkeys. Here is the method:
(§2) Groups of 3 cynomolgous monkeys are treated with 5FU at 125 mg/kg and
(§3) beginning 24 hours later treated with test compound s.c. at 0.05 mg/kg.
(§4) The data reported are from sera taken 4 hours after test compound

The test system of test [2] is IL-6. Nature of the test: Serum IL-6 production in mice after single s.c. injection (7TD1 bioassay). Format: in vivo, mouse. As to conditions: serum 4 h post injection. Here is the method: Description of Biological Assays Interleukin 6(IL-6) assay for structure function analysis--Test compounds are dissolved in water and administered subcutaneously in 0.2 ml to deliver a dose of 0.1-10 mg/kg. The less soluble compounds are first dissolved in 100% ethanol and then brought to the appropriate concentration in water. Four hours post injection, the mice are bled and the serum is retrieved. The IL-6 dependent cell line 7TDl is used to assay serial dilutions of sera for IL-6 content. 7TDl cells (1×10^4) are placed in microtiter wells and incubated at 37° C. for 72 hours with standard recombinant mouse IL-6 or with dilutions of serum to be tested. Over the last 6 hours, the cells are pulsed with ^3 H-Tdr (μci). Cells are then harvested and the degree of proliferation determined by the uptake of ^3 H-Tdr as measured by liquid scintillation spectrometry. The concentration of IL-6 in serum is calculated from standard curves utilizing recombinant IL-6 from R&D Systems Inc. and are reported in units of IL-6 activity as defined by the manufacturer.

The subject of the next test is neutrophils. Nature of the test: Neutrophil recovery in 5-FU treated mice. Format: in vivo, mouse. The note with it: for Neutrophils/cu. mm.: day 7 post 5FU 150 mg/kg, 10 mice/group, vehicle 157 ± 52. Here is the method: Circulating Neutrophil Assay--Mice are treated with 5-FU (150 mg/kg) and beginning 24 hrs. later, treated daily with the test compound. Mice are bled daily by retroorbital puncture in heparinized capillary tubes. Circulating WBC counts are determined by Coulter counter. Blood smears are stained with Wright-Geimsa solution and the percentage circulating neutrophils determined by differential counting under a microscope.
5-Fluorouracil (5-FU) Induced Neutropenia In Mice--Mice are treated ip with 150 mg/kg of the chemotherapy agent 5-FU which induces a severe loss of neutrophils in the peripheral blood 5-6 days later. Twenty-four hrs. after the dose, treatment with the test compounds is initiated. The effect of the test compounds on recovery of neutrophil progenitor cells in the bone marrow is determined by the CFU-GM assay. The recovery of circulating neutrophils is followed by differential staining of the peripheral blood.
*Data from 10 mice/group on day 7 post treatment with 150 mg/kg of 5FU.
Beginning 24 hrs. after 5FU dose, mice were treated daily with test
compound at concentrations indicated. Neutrophil count for normal mice (n
**Mice treated with 5FU and vehicle only.

The test system of the next test is bone marrow CFU-GM. Nature of the test: Bone marrow CFU-GM in 5-FU treated mice. Format: in vivo, mouse. As to the method:
as §1, with “microscope. 5-Fluorouracil (5-FU) Induced Neutropenia In Mice--Mice are treated ip with 150 mg/kg of the chemotherapy agent 5-FU which induces a severe loss of neutrophils in the peripheral blood 5-6 days later. Twenty-four hrs. after the dose, treatment with the test compounds is initiated. The effect of the test compounds on recovery of neutrophil progenitor cells in the bone marrow is determined by the CFU-GM assay. […]” for “microscope.”

The next test deals with GCSF. Nature of the test: Serum GCSF in 5-FU treated monkeys. In kind it is in vivo, cynomolgous monkeys. As to the method:
as §2, §3, §4

Test [3] deals with bone marrow progenitor cells. Nature of the test: Delta assay: expansion of bone marrow progenitor cells in vitro, with c-kit ligand (KL). In kind it is cell-based, mouse. As to conditions: for fold induction at 0.5 µg/mL: Mus musculus, Bone marrow cell, 168 h, 7 day in vitro incubation, read-out: Fold Increase in CFU.
Procedure: Delta Assay--Mice are treated with a single dose of 5-FU (150 mg/kg ip). Twenty-four hours later, bone marrow cells are removed and split into 2 aliquots. […] After 14 days, the number of colonies is determined (CFU-1). A second aliquot of cells is placed in liquid culture with single growth factors or drugs or combinations of each to assess the ability of these agents to expand the colony forming cell pool. After 7 days in liquid culture, these cells are harvested and plated in soft agar with IL-1 and GM-CSF as with the first aliquot. After 14 days the number of colonies in the second aliquot is determined (CFU-2). The ratio or delta is calculated as CFU-2/CFU-1 and this ratio is used to ascertain the ability of the growth factors and/or drugs used in the liquid phase to induce growth of the colony forming cells (CFU) or differentiation of pre-CFU to CFU.
Bone marrow cells from 5-FU treated mice are used to enrich for early progenitor cells. The cells are split into 2 aliquots as described in the methods section for the "delta assay." The fold increase is determined by measuring the effect of a 7 day in vitro incubation of the cells with tissue culture medium plus test compound and/or growth factor KL on colony forming dells (CFU). The number of CFUs are then compared with colony formation of the fresh bone marrow cells that were not incubated in vitro to determine the fold increase. Test compound is used in vitro at 0.5 μg/ml.
Setting [4] is: 0.05 mg/kg s.c., 5FU 125 mg/kg, sera 4 hours after treatment, 5-FU only 0.

For `CCCCCCC(=O)N[C@@H](C(=O)O)[C@@H](C)OC(=O)N[C@@H](CCC[C@@H](N)C(=O)O)C(=O)N[C@H](C)C(=O)O` [Example 28, [R-(R*,R*)]-N-(R)-6-carboxy-N^2-[[2-carboxy-1-methyl-2-[(1-oxoheptyl)amino]ethoxy]carbonyl]-L-lysyl]-D-Alanine], the entries for the “CSF production, CFU/100,000 Bone Marrow Cells” value in the test on CSF (0.1 mg/kg) and in the test on CSF (1.0 mg/kg) were 95 ± 16 CFU/100,000 Bone Marrow Cells and 101 ± 8 CFU/100,000 Bone Marrow Cells, respectively. In addition, the “Serum IL-6” value with IL-6 [1] (setting [4]) came to 2579 ± 318 Units/ml. The “IL-6 production in the serum of 5-FU treated primates (in words)” value in the test with IL-6 [1] (monkey, in vivo) is “induces IL-6 and GCSF production”. For the same molecule, the results for the IL-6 with IL-6 [2] (0.1 mg/kg s.c.), in the test on IL-6 [2] (1.0 mg/kg s.c.) and in the test with IL-6 [2] (10.0 mg/kg s.c.) were 4802 ± 804 U/ml, 3844 ± 482 U/ml and 1718 U/ml, respectively. Further, the Neutrophils/cu. mm. in the test on neutrophils (1.56 μg/kg daily) is 722 ± 199 /cu. mm; with neutrophils (3.12 μg/kg daily), 424 ± 115 /cu. mm; in the test with neutrophils (6.25 μg/kg daily), 758 ± 249 /cu. mm; in the test on neutrophils (12.50 μg/kg daily) it was 1314 ± 267 /cu. mm; in the test on neutrophils (25.00 μg/kg daily), 1804 ± 408 /cu. mm; in the test with neutrophils (50.00 μg/kg daily) it was 1716 ± 284 /cu. mm. Besides, in the test on neutrophils (100.00 μg/kg daily), the Neutrophils/cu. mm. is recorded as 2613 ± 364 /cu. mm. Moreover, the “neutrophil recovery in 5-FU treated mice (in words)” value in the test with neutrophils (mouse, in vivo) is reported as “enhances the recovery of peripheral blood neutrophils; also recorded: induce neutrophil recovery in 5-FU treated mice”. The CFU-GM/femur in the test with bone marrow CFU-GM (0.1 mg/kg daily s.c., day 3 after 5FU 150 mg/kg, normal 30184 ± 3677, 5-FU only 805 ± 512) came out at 6055 ± 534 CFU-GM/femur. Moreover, the “CFU-GM in the bone marrow (in words)” value in the test with bone marrow CFU-GM (5-FU treated mice) was “increase of CFU-GM”. Moreover, the “Serum GCSF” value in the test on GCSF (setting [4]) worked out at 3962 ± 2178 pg/mL. The “GCSF production in the serum of 5-FU treated primates (in words)” value with GCSF (monkey, in vivo) was “induces IL-6 and GCSF production”. Besides, the fold induction at 0.5 µg/mL in test [3] (KL + test compound (0.5 μg/ml)) worked out at 158; in test [3] (test compound alone, 0.5 μg/ml, medium alone 0), 1.3. Also, the “synergy with c-kit ligand (KL) on growth of bone marrow progenitor cells (in words)” value in test [3] (in vitro) is reported as “acts synergistically”.
